Patent US12077503B2, “Substituted cyclic amides and their use as herbicides” (FMC CORPORATION, priority 2015, dated 2024)

Legend:
Format in all cases: in vivo
Kochia (Kochia scoparia) [1] = experiment: Test A preemergence; conditions: Bassia scoparia, pre-emergence, 240 h, Preemergence
Method in brief: (§1)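 Seeds sprayed preemergence with a directed soil spray, or plants at 2 to 10 cm height and one- to two-leaf stage sprayed postemergence, with test chemicals in a non-phytotoxic solvent mixture containing surfactant, in loam soil–sand blend. Injury rated visually against untreated controls after about 10 d in greenhouse, 0 (no effect) to 100 (complete control).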

[2] = test system: barnyardgrass (Echinochloa crus-galli); experiment: Test A preemergence; conditions: Echinochloa crus-galli, pre-emergence, 240 h, Preemergence
Method in brief: as §1

[3] = test system: giant foxtail (Setaria faberii); experiment: Test A preemergence; conditions: Setaria faberi, pre-emergence, 240 h, Preemergence
Method in brief: as §1

[4] = test system: pigweed (Amaranthus retroflexus); experiment: Test A preemergence; conditions: Amaranthus retroflexus, pre-emergence, 240 h, Preemergence
[5] = test system: ragweed (common ragweed, Ambrosia elatior); experiment: Test A preemergence; conditions: Ambrosia artemisiifolia, pre-emergence, 240 h, Preemergence
Method in brief: as §1

[6] = test system: ryegrass, Italian (Italian ryegrass, Lolium multiflorum); experiment: Test A preemergence; conditions: Lolium multiflorum, pre-emergence, 240 h, Preemergence
Method in brief: as §1

Kochia (Kochia scoparia) [7] = experiment: Test A postemergence; conditions: Bassia scoparia, post-emergence, 240 h, Postemergence, read-out: Kochia plant response rating (0 to 100 scale)
Method in brief: as §1

[8] = test system: barnyardgrass (Echinochloa crus-galli); experiment: Test A postemergence; conditions: Echinochloa crus-galli, post-emergence, 240 h, Postemergence
Method in brief: as §1

[9] = test system: blackgrass (Alopecurus myosuroides); experiment: Test A postemergence; conditions: Alopecurus myosuroides, post-emergence, 240 h, Postemergence, read-out: Blackgrass plant response rating (0 to 100 scale)
Method in brief: as §1

corn (Zea mays) = experiment: Test A postemergence; conditions: Zea mays, post-emergence, 240 h, Postemergence, read-out: Corn plant response rating (0 to 100 scale)
Method in brief: as §1

[10] = test system: giant foxtail (Setaria faberii); experiment: Test A postemergence; conditions: Setaria faberi, post-emergence, 240 h, Postemergence, read-out: Foxtail, Giant plant response rating (0 to 100 scale)
Method in brief: as §1

[11] = test system: pigweed (Amaranthus retroflexus); experiment: Test A postemergence; conditions: Amaranthus retroflexus, post-emergence, 240 h, Postemergence, read-out: Pigweed plant response rating (0 to 100 scale)
Method in brief: as §1

[12] = test system: ragweed (common ragweed, Ambrosia elatior); experiment: Test A postemergence; conditions: Ambrosia artemisiifolia, post-emergence, 240 h, Postemergence, read-out: Ragweed plant response rating (0 to 100 scale)
Method in brief: as §1

[13] = test system: ryegrass, Italian (Italian ryegrass, Lolium multiflorum); experiment: Test A postemergence; conditions: Lolium multiflorum, post-emergence, 240 h, Postemergence, read-out: Ryegrass, Italian plant response rating (0 to 100 scale)
Method in brief: as §1

[14] = test system: wheat (Triticum aestivum); experiment: Test A postemergence; conditions: Triticum aestivum, post-emergence, 240 h, Postemergence, read-out: Wheat plant response rating (0 to 100 scale)
Method in brief: as §1

[15] = test system: barnyardgrass (Echinochloa crus-galli); experiment: Test B flooded paddy test; conditions: Echinochloa crus-galli, 360 h, Flood, 250 g ai/ha; visually evaluated after 13 to 15 d; read-out: Plant response rating, Barnyardgrass (0 to 100 scale where 0 is no effect and 100 is complete control)
Method in brief: (§2)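 Greenhouse paddy pots with 2-leaf stage plants received compound by direct addition to floodwater 3 cm deep, kept at that level. Scored visually at 13–15 d versus controls (0 no effect; 100 complete control).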

[16] = test system: ducksalad (Heteranthera limosa); experiment: Test B flooded paddy test; conditions: Heteranthera limosa, 360 h, Flood, 250 g ai/ha; visually evaluated after 13 to 15 d; read-out: Plant response rating, Ducksalad (0 to 100 scale where 0 is no effect and 100 is complete control)
Method in brief: as §2

rice (Oryra sativa) = experiment: Test B flooded paddy test; conditions: Oryza sativa, 360 h, Flood, 250 g ai/ha; visually evaluated after 13 to 15 d; read-out: Plant response rating, Rice (0 to 100 scale where 0 is no effect and 100 is complete control)
Method in brief: as §2

[17] = test system: sedge, umbrella (small-flower umbrella sedge, Cyperus difformis); experiment: Test B flooded paddy test; conditions: Cyperus difformis, 360 h, Flood, 250 g ai/ha; visually evaluated after 13 to 15 d; read-out: Plant response rating, Sedge, Umbrella (0 to 100 scale where 0 is no effect and 100 is complete control)
Method in brief: as §2

[18] = 125 g ai/ha, visual rating about 10 d after treatment
[19] = 31 g ai/ha, 0 is no effect, 100 is complete control

COc1ccc([C@H]2CNC(=O)[C@@H]2C(=O)Nc2cccc(F)c2F)cc1 [Compound 1341]
pest or weed control at 31 g/ha (Kochia (Kochia scoparia) [1]; 31 g ai/ha, 0 to 100 scale where 0 is no effect and 100 is complete control, read-out: Kochia plant response rating): 30%
pest or weed control at 125 g/ha (Kochia (Kochia scoparia) [1]; 125 g ai/ha, 0 to 100 scale (0 no effect, 100 complete control), read-out: Plant response rating, Kochia): 0%
pest or weed control at 31 g/ha ([2]; 31 g ai/ha, 0 to 100 scale where 0 is no effect and 100 is complete control, read-out: Barnyardgrass plant response rating): 0%
pest or weed control at 125 g/ha ([2]; 125 g ai/ha, 0 to 100 scale (0 no effect, 100 complete control), read-out: Plant response rating, Barnyardgrass): 60%
pest or weed control at 31 g/ha ([3]; 31 g ai/ha, 0 to 100 scale where 0 is no effect and 100 is complete control, read-out: Foxtail, Giant plant response rating): 10%
pest or weed control at 125 g/ha ([3]; 125 g ai/ha, 0 to 100 scale (0 no effect, 100 complete control), read-out: Plant response rating, Foxtail, Giant): 70%
pest or weed control at 31 g/ha ([4]; 31 g ai/ha, 0 to 100 scale where 0 is no effect and 100 is complete control, read-out: Pigweed plant response rating): 0%
pest or weed control at 125 g/ha ([4]; 125 g ai/ha, 0 to 100 scale (0 no effect, 100 complete control), read-out: Plant response rating, Pigweed): 0%
pest or weed control at 31 g/ha ([5]; 31 g ai/ha, 0 to 100 scale where 0 is no effect and 100 is complete control, read-out: Ragweed plant response rating): 20%
pest or weed control at 125 g/ha ([5]; 125 g ai/ha, 0 to 100 scale (0 no effect, 100 complete control), read-out: Plant response rating, Ragweed): 0%
pest or weed control at 31 g/ha ([6]; 31 g ai/ha, 0 to 100 scale where 0 is no effect and 100 is complete control, read-out: Ryegrass, Italian plant response rating): 0%
pest or weed control at 125 g/ha ([6]; 125 g ai/ha, 0 to 100 scale (0 no effect, 100 complete control), read-out: Plant response rating, Ryegrass, Italian): 0%
pest or weed control at 125 g/ha (Kochia (Kochia scoparia) [7]; [18]): 0%
pest or weed control at 31 g/ha (Kochia (Kochia scoparia) [7]; [19]): 0%
pest or weed control at 125 g/ha ([8]; 125 g ai/ha, visual rating about 10 d after treatment, read-out: Barnyardgrass plant response rating (0 to 100 scale, 0 no effect, 100 complete control)): 90%
pest or weed control at 31 g/ha ([8]; 31 g ai/ha, 0 is no effect, 100 is complete control, read-out: Barnyardgrass plant response rating (0 to 100 scale)): 40%
pest or weed control at 125 g/ha [9, 18]: 0%
pest or weed control at 31 g/ha [9, 19]: 0%
plant injury at 125 g/ha (corn (Zea mays); [18]): 0%
plant injury at 31 g/ha (corn (Zea mays); [19]): 0%
pest or weed control at 125 g/ha [10, 18]: 0%
pest or weed control at 31 g/ha [10, 19]: 0%
pest or weed control at 125 g/ha [11, 18]: 0%
pest or weed control at 31 g/ha [11, 19]: 0%
pest or weed control at 125 g/ha [12, 18]: 0%
pest or weed control at 31 g/ha [12, 19]: 0%
pest or weed control at 125 g/ha [13, 18]: 0%
pest or weed control at 31 g/ha [13, 19]: 0%
plant injury at 125 g/ha [14, 18]: 0%
plant injury at 31 g/ha [14, 19]: 0%
pest or weed control at 250 g/ha [15]: 30%
pest or weed control at 250 g/ha [16]: 90%
pest or weed control at 250 g/ha (rice (Oryra sativa)): 0%
pest or weed control at 250 g/ha [17]: 0%
